According to ChEMBL document CHEMBL5661955, “ASAP - In vitro cytotoxicity” (2024):
“And” between values parts separate entries of the source, which are not always exact repeats. Identical values can stand only once.

Legend:
[1] = Functional assay to measure dose dependent changes in cell viability from drug treatment in Vero E6 miRFP670 cells (cotreated with P-gp inhibitor, CP100356) that are infected with Dengue virus type 2 New Guinea C. […] Cytotoxicity is reported via via analysis of DAPI count using high-content imager. The assay has been performed by KU Leuven.; format: toxicity, cell-based, Vero C1008; settings: chlorocebus sabaeus, p-gp concentration 500 nM
[2] = Functional CPE-based assay to measure dose dependent changes in cell viability from drug treatment in Vero E6 miRFP670 cells (cotreated with P-gp inhibitor, CP100356). Cells are treated with antiviral candidates that have been serially diluted. Cytotoxicity is reported via analysis of MTS assays in uninfected cells. The assay has been performed by KU Leuven.; format: toxicity, Vero C1008; settings: chlorocebus sabaeus, p-gp concentration 500 nM
[3] = with CP100356 (P-gp inhibitor, concentration not stated)
[4] = Vero E6 miRFP670 cells, with CP100356 (P-gp inhibitor, concentration not stated)

Compound	CC50 [1, 3]	CC50 [2, 4]	CC50 ([1]; vero c1008)	CC50 ([2]; vero c1008)
CNC(=O)[C@H](Nc1ccc2c(c1)CNC2)c1cc(Cl)cc2[nH]ncc12	5.53 µM	> 50 µM		
O=C(Nc1ccc2c(n1)CNC2)c1cc(Cl)cc2[nH]ncc12	> 50 µM	> 50 µM		
CC(=O)Nc1cc(Br)cc(C(=O)Nc2ccc3c(c2)CNC3)c1	0.561 µM	> 50 µM		
CC(C)NC(=O)[C@H](Nc1ccc2c(c1)CNC2)c1cc(Cl)cc2[nH]c(-c3ccccc3)nc12			23.2 µM and 7.47 µM and 13.6 µM	5.66 µM and 9.23 µM and 13.7 µM
Cc1ncc(-c2cc(F)cc(C(=O)Nc3ccc4c(c3)CNC4)c2)o1	12.5 µM	11.9 µM		
O=C(Nc1cc2c(cc1Br)CNC2)c1cc(Cl)cc2[nH]ncc12	13.5 µM	1.85 µM		
O=C(Nc1ccc2c(c1)CNC2)c1cc(F)cc2[nH]c(-c3cnc(C4CC4)o3)nc12	1.86 µM		2.55 µM	3.86 µM and 1.41 µM
O=C(Nc1ccc2c(c1)CNC2)c1cc(F)cc(-c2cn[nH]c2)c1	37.2 µM	> 50 µM		
O=C(Nc1ccc2c(c1)CNC2)c1cccc2[nH]c(C(F)(F)F)cc12	> 50 µM	47.3 µM		
O=C(Nc1ccc2c(c1)CNC2)c1cc(Cl)cc2cn[nH]c12	5 µM	> 50 µM		
N#Cc1cccc(-c2nc3c(C(=O)Nc4ccc5c(c4)CNC5)cc(F)cc3[nH]2)c1	20.7 µM	29.2 µM		
O=C(Nc1ccc2c(c1)CNC2)c1cc(Cl)cc2[nH]c(-c3ccnn3C3CC3)nc12	11.7 µM	1.78 µM		
O=C(Nc1cc2c(c(-c3c[nH]c(=O)c(F)c3)c1)CNC2)c1cc(F)cc2[nH]ncc12	> 50 µM	> 50 µM		
O=C(Nc1ccc2c(c1)CNC2)c1cc(Br)cc2[nH]c(=O)[nH]c12	4.79 µM	> 50 µM		
CNC(=O)[C@H](Nc1ccc2c(c1)CNC2)c1cc(Cl)cc2[nH]c(-c3ccccc3)nc12	> 50 µM			9.01 µM and 21.4 µM
O=C(Nc1ccc2c(c1)CN[C@H]2C[C@H](O)CO)c1cc(F)cc2[nH]ncc12	31.2 µM	> 50 µM		
O=C(NCCCn1ccnc1)[C@H](Nc1ccc2c(c1)CNC2)c1cc(Cl)cc(C2CC2)c1	> 50 µM	11.5 µM		
O=C(Nc1ccc2c(c1)CNC2)c1cc(Cl)cc2[nH]c(-c3ccc(F)cc3O)nc12	1.64 µM	2.19 µM		
N#Cc1ccc(-c2nc3c(C(=O)Nc4ccc5c(c4)CNC5)cc(F)cc3[nH]2)cc1	> 50 µM	> 50 µM		
COc1cccc(-c2nc3c(C(=O)Nc4ccc5c(c4)CNC5)cc(F)cc3[nH]2)c1	5.1 µM	2.86 µM		

Compound	CC50 [1, 3]	CC50 [2, 4]	CC50 ([1]; vero c1008)	CC50 ([2]; vero c1008)
CO[C@H]1C[C@H](n2ncc3c(C(=O)Nc4ccc5c(c4)CNC5)cc(Cl)cc32)C1	47.5 µM	14 µM		
O=C(NCC(F)F)[C@H](Nc1ccc2c(c1)CNC2)c1cc(F)cc2[nH]ccc12	31.1 µM	> 50 µM		
Cn1cc2c(C(=O)Nc3ccc4c(c3)CNC4)cc(F)cc2n1	> 50 µM	> 50 µM		
C=CC[C@H]1NCc2cc(NC(=O)c3cc(Cl)cc4[nH]ncc34)ccc21	3.12 µM	11.8 µM		
Cc1nc2c(C(=O)Nc3ccc4c(c3)CNC4)cc(Cl)cc2[nH]1	6.02 µM	4.77 µM		
COc1ccccc1-c1nc2c(C(=O)Nc3ccc4c(c3)CNC4)cc(F)cc2[nH]1	15.6 µM	> 50 µM		
CCCn1cc2c(C(=O)Nc3ccc4c(c3)CNC4)cc(Cl)cc2n1	21.5 µM	17.4 µM		
O=C(Nc1cc(Cl)cc(-c2ccc3[nH]c(C(=O)O)cc3c2)c1)OCc1ccccc1	27.1 µM	25.2 µM	14.3 µM	
O=C(NCCC1CC1)[C@H](Nc1ccc2c(c1)CNC2)c1cc(Cl)cc(C2CC2)c1	16.7 µM	11.8 µM		
NCc1cccc(-c2csc3cc(C(=O)Nc4ccc5c(c4)CNC5)ccc23)c1	3.57 µM	5.68 µM		
O=C(Nc1ccc2c(c1)CNC2)c1cc(F)cc2[nH]c(-c3cccc(F)c3)nc12	2.47 µM	3.69 µM		
N#Cc1cc2c(cc1NC(=O)c1cc(F)cc3[nH]ncc13)CNC2	> 50 µM	> 50 µM		
O=C(Nc1ccc2c(c1)CNC2)c1cc(F)cc(-c2cccnc2)c1	> 50 µM	15.4 µM		
O=C(Nc1ccc2c(c1)CNC2)c1cc(Cl)cc2cc[nH]c12	19.7 µM	5.91 µM		
Cc1cccc(-c2nc3c(C(=O)Nc4ccc5c(c4)CNC5)cc(F)cc3[nH]2)c1	0.838 µM	2.76 µM		
O=C(Nc1ccc2c(c1)CNC2)c1cccc2c1[C@]1(CCNC1)C(=O)N2	> 50 µM	> 50 µM		
Cc1ncc(-c2cc(F)cc(C(=O)Nc3ccc4c(c3)CNC4)c2)s1	> 50 µM	23.1 µM		
O=C(Nc1cc(Br)c2c(c1)CNC2)c1cc(F)cc2[nH]ncc12	> 50 µM	> 50 µM		
O=C(NCC(F)F)[C@H](Nc1ccc2c(c1)CNC2)c1cc(F)cc2[nH]ncc12	> 50 µM	> 50 µM		
